According to patent publication US8951563B2, “Antibiotic drug delivery and potentiation” (Technion Research & Development Foundation Limited, priority 2009, dated 2015):
In brackets after ≈: the same amount, converted by molar mass.

Legend:
E. coli = format: cell-based
Procedure: (§1) All bacteria were cultured in Luria-Bertani (LB) medium (10 g/l tryptone, 5 g/l yeast extract, 5 g/l NaCl, pH 7.4).
(§2) Bacteria were grown overnight in LB growth medium and diluted 10,000-fold in same medium.
(§3) Inhibition of proliferation was determined by optical density measurements (620 nm) after incubation overnight at 37° C.

A. aureus = format: cell-based
Procedure: as §1, §2, §3

[1] = Cochleate formation by light microscopy; format: physicochemical; parameters: key: or above (E!); excellent (E); good (G); poor (P); none (N)
Procedure: Lipid films containing binary mixtures of lipids were made from aliquots of stock solutions in chloroform:methanol (2:1). The solvent was evaporated with a stream of nitrogen gas and the lipids deposited as a film on the walls of a glass tube. The tubes were then placed in a vacuum dessicator for 3 hours. The films were kept under Argon at −20° C. The lipid films were hydrated with buffer solutions of OAK polymers with extensive vortexing, so as to have a lipid to polymer molar ratio of […].
Hydrated films were subjected to freeze thawing three times before imaging, to ensure proper equilibration of OAK with the multilamellar vesicles. A drop of this mixture was placed on a glass slide and covered with a glass coverslip. Light microscopy was carried out at room temperature using a Zeiss Axiovert 100M microscope with a Plan-Neofluar 100×/1.3 oil immersion objective. Images were analyzed with the Zeiss LSM image browser v2.8.
The morphology of the samples of different OAKs and different lipid mixtures could be classified into the following categories.
Table 5 presents the results of cochleate formation with different lipid mixtures of 1:10 lipid to polymer ratio, and a series of OAK polymers, indicated by their alternative denotations and SED ID Nos in parentheses. “Tm” denotes the melting temperature of the lipid bilayer afforded by the given lipid mixture. Some selected samples were further analyzed to confirm the results with freeze fracture electron microscopy for, as indicated in Table 5. Cochleate formation is defined as excellent (E) or above (E!), good (G), poor (P), or none (N) based on the aforementioned comparison, as well as on the abundance of cochleate structures observed in the light microscopy images. Lipid mixtures having a number in parenthesis are samples for which freeze-fracture electron microscopy analysis was conducted. Lipid mixtures having a “+” sign next to the number in parenthesis are samples which were confirmed by freeze-fracture electron microscopy as forming large cochleates with few vesicles and no inverted micellar (HII) morphology (samples 2, 3 and 5), or smaller cochleate structures mixed with other morphologies (samples 0 and 4). Lipid mixtures which contain only anionic lipids are marked with “^A”. Sample 0 is the lipid/OAK system used and presented in Example 1 hereinabove.

[2] = Molecular charge and RP-HPLC hydrophobicity of polymers; format: physicochemical; conditions: HPLC-RP gradient mobile phase
Description: Briefly, the polymers were synthesized while applying the Fmoc active ester chemistry on a fully automated, programmable peptide synthesizer (Applied Biosystems 433A). After cleavage from the resin, the crude product was extracted with 30% acetonitrile in water and purified by RP-HPLC (Alliance Waters), so as to obtain a chromatographic homogeneity higher than 95%. HPLC runs were typically performed on C18 columns (Vydac, 250 mm×4.6 or 10 mm) using a linear gradient of acetonitrile in water (1% per minute), both solvents containing 0.1% trifluoroacetic acid. The purified polymers were subjected to mass spectrometry (ZQ Waters) and NMR analyses to confirm their composition, and stored as a lyophilized powder at −20° C. Prior to being tested, fresh solutions were prepared in water, vortexed, sonicated, centrifuged and then diluted in the appropriate medium.
“Q” represents the overall molecular charge at physiological pH; “ACN (%)” represents the percent of acetonitrile in the HPLC-RP gradient mobile phase at which the polymer was eluted and which corresponds to the estimated hydrophobicity of the polymer. The column headed by “Ref.” indicates prior reference of the OAK if present, wherein a number in parentheses “(##)” corresponds to the SEQ ID NO in U.S. Pat. No. 7,504,381; the letter “R” indicates a polymer published in Radzishevsky I. S. et al. (2008), Chem. Biol., 15(4), pp. 354-362; and “New” indicates a novel polymer disclosed herein.

[3] = DMPC:TOCL 75:25, 1:10 lipid to polymer ratio
[4] = DMPE:DOPG 75:25, 1:10 lipid to polymer ratio
[5] = DMPE:TOCL 75:25, 1:10 lipid to polymer ratio
[6] = DMPG:TOCL 75:25 (anionic lipids only), 1:10 lipid to polymer ratio
[7] = DOPE:TOCL 75:25, 1:10 lipid to polymer ratio
[8] = DPPE:TOCL 75:25, 1:10 lipid to polymer ratio
[9] = POPC:TOCL 75:25, 1:10 lipid to polymer ratio
[10] = POPE:DOPG 75:25, 1:10 lipid to polymer ratio
[11] = POPE:DOPG:TOCL 80:15:5, 1:10 lipid to polymer ratio
[12] = POPE:TOCL 75:25, 1:10 lipid to polymer ratio
[13] = POPG:TOCL 75:25 (anionic lipids only), 1:10 lipid to polymer ratio
[14] = DMPE:TOCL75:25, 10:1 lipid to polymer ratio (Table 6)
[15] = POPE:TOCL 75:25, 10:1 lipid to polymer ratio (Table 6)

SMILES	MIC E. coli (E. coli)	MIC A. aureus (A. aureus)	Cochleate formation [1, 3]	Cochleate formation [1, 4]	Cochleate formation [1, 5]	Cochleate formation [1, 6]	Cochleate formation [1, 7]	Cochleate formation [1, 8]	Cochleate formation [1, 9]	Cochleate formation [1, 10]	Cochleate formation [1, 11]	Cochleate formation [1, 12]	Cochleate formation [1, 13]	ACN (%) (percent acetonitrile at elution, estimated hydrophobicity) [2]	Cochleate formation [1, 14]	Cochleate formation [1, 15]
CCCCCCCCCCCC(=O)N[C@@H](CCCCN)C(=O)NCCCCCCCC(=O)N[C@@H](CCCCN)C(=O)NCCCCCCCC(=O)N[C@@H](CCCCN)C(=O)NCCCCCCCC(=O)N[C@@H](CCCCN)C(=O)NCCCCCCCC(=O)N[C@@H](CCCCN)C(=O)NCCCCCCCC(=O)N[C@@H](CCCCN)C(N)=O [C12K-5α8, C12K(NC8K)5NH2]	3.1 µM (≈ 5.19 µg/mL)	50 µM (≈ 83.7 µg/mL)	N	E	P	G	N	E	P	G	N	G	P	49.7%		
CCCCCCCCCCCC(=O)N[C@@H](CCCCN)C(=O)NCCCCCCCC(=O)N[C@@H](CCCCN)C(=O)NCCCCCCCC(=O)N[C@@H](CCCCN)C(=O)NCCCCCCCC(=O)N[C@@H](CCCCN)C(=O)NCCCCCCCC(=O)N[C@@H](CCCCN)C(=O)NCCCCCCCC(=O)N[C@@H](CCCCN)C(=O)NCCCCCCCC(=O)N[C@@H](CCCCN)C(N)=O [C12K-6α8, C12K(NC8K)6NH2]	3.1 µM (≈ 6.03 µg/mL)	50 µM (≈ 97.2 µg/mL)		G								G		50%		
CCCCCCCCCCCC(=O)N[C@@H](CCCCN)C(=O)NCCCC(=O)N[C@@H](CCCCN)C(=O)NCCCC(=O)N[C@@H](CCCCN)C(=O)NCCCC(=O)N[C@@H](CCCCN)C(=O)NCCCC(=O)N[C@@H](CCCCN)C(=O)NCCCC(=O)N[C@@H](CCCCN)C(=O)NCCCC(=O)N[C@@H](CCCCN)C(=O)NCCCC(=O)N[C@@H](CCCCN)C(N)=O [C12K-7α4, C12K(NC4K)7NH2]	12.5 µM (≈ 22.8 µg/mL)	>50 µM												45.2%	G	G-E
CCCCCCCCCCCC(=O)NC(CCCCN)C(=O)NCCCCCCCC(=O)NC(CCCCN)C(=O)NCCCCCCCC(=O)NC(CCCCN)C(=O)NCCCCCCCC(=O)NC(CCCCN)C(=O)NCCCCCCCC(=O)NC(CCCCN)C(=O)NCCCCCCCC(=O)NC(CCCCN)C(=O)NCCCCCCCC(=O)NC(CCCCN)C(=O)NCCCCCCCC(=O)NC(CCCCN)C(=O)NCCCCCCCC(=O)NC(CCCCN)C(=O)NCCCCCCCC(=O)NC(CCCCN)C(=O)NCCCCCCCC(=O)NC(CCCCN)C(=O)NCCCCCCCC(=O)NC(CCCCN)C(N)=O (stereo not drawn) [C12K-11α8, C12K(NC8K)11NH2]	3.1 µM (≈ 10.2 µg/mL)	>50 µM		E	G		G	P	P	P		G	N	42.2%		

More lines, now with the values ahead:

MIC E. coli (E. coli)	MIC A. aureus (A. aureus)	Cochleate formation [1, 3]	Cochleate formation [1, 4]	Cochleate formation [1, 5]	Cochleate formation [1, 6]	Cochleate formation [1, 7]	Cochleate formation [1, 8]	Cochleate formation [1, 9]	Cochleate formation [1, 10]	Cochleate formation [1, 11]	Cochleate formation [1, 12]	Cochleate formation [1, 13]	ACN (%) (percent acetonitrile at elution, estimated hydrophobicity) [2]	Cochleate formation [1, 14]	Cochleate formation [1, 15]	SMILES
>50 µM	>50 µM												55.2%	P	N	CCCCCCCCCCCC(=O)N[C@@H](CCCCN)C(=O)NCCCCCCCCCCCC(=O)N[C@@H](CCCCN)C(=O)NCCCCCCCCCCCC(=O)N[C@@H](CCCCN)C(=O)NCCCCCCCCCCCC(=O)N[C@@H](CCCCN)C(=O)NCCCCCCCCCCCC(=O)N[C@@H](CCCCN)C(=O)NCCCCCCCCCCCC(=O)N[C@@H](CCCCN)C(=O)NCCCCCCCCCCCC(=O)N[C@@H](CCCCN)C(=O)NCCCCCCCCCCCC(=O)N[C@@H](CCCCN)C(N)=O [C12K-7α12, C12K(NC12K)7NH2]
3.1 µM (≈ 7.7 µg/mL)	>50 µM		G	E		G	E		N	N	G		48.5%			CCCCCCCCCCCC(=O)NC(CCCCN)C(=O)NCCCCCCCC(=O)NC(CCCCN)C(=O)NCCCCCCCC(=O)NC(CCCCN)C(=O)NCCCCCCCC(=O)NC(CCCCN)C(=O)NCCCCCCCC(=O)NC(CCCCN)C(=O)NCCCCCCCC(=O)NC(CCCCN)C(=O)NCCCCCCCC(=O)NC(CCCCN)C(=O)NCCCCCCCC(=O)NC(CCCCN)C(=O)NCCCCCCCC(=O)NC(CCCCN)C(N)=O (stereo not drawn) [C12K-8α8, C12K(NC8K)8NH2]
6.25 µM (≈ 17.2 µg/mL)	>50 µM	N	E!	E	N	G	E	N	G		G	P	48.4%			CCCCCCCCCCCC(=O)NC(CCCCN)C(=O)NCCCCCCCC(=O)NC(CCCCN)C(=O)NCCCCCCCC(=O)NC(CCCCN)C(=O)NCCCCCCCC(=O)NC(CCCCN)C(=O)NCCCCCCCC(=O)NC(CCCCN)C(=O)NCCCCCCCC(=O)NC(CCCCN)C(=O)NCCCCCCCC(=O)NC(CCCCN)C(=O)NCCCCCCCC(=O)NC(CCCCN)C(=O)NCCCCCCCC(=O)NC(CCCCN)C(=O)NCCCCCCCC(=O)NC(CCCCN)C(N)=O (stereo not drawn) [C12K-9α8, C12K(NC8K)9NH2]
12.5 µM (≈ 27.9 µg/mL)	50 µM (≈ 111 µg/mL)												36.9%	E	G-E	NCCCCCCCCCCCC(=O)NC(CCCCN)C(=O)NCCCCCCCC(=O)NC(CCCCN)C(=O)NCCCCCCCC(=O)NC(CCCCN)C(=O)NCCCCCCCC(=O)NC(CCCCN)C(=O)NCCCCCCCC(=O)NC(CCCCN)C(=O)NCCCCCCCC(=O)NC(CCCCN)C(=O)NCCCCCCCC(=O)NC(CCCCN)C(=O)NCCCCCCCC(=O)NC(CCCCN)C(N)=O (stereo not drawn) [α12-7α8, NC12K(NC8K)7NH2]
